Like-named read-outs stand apart in the source and are kept apart here.
Columns and labels:
[1] = system: HEK293 cells expressing dL5**-TM coplated with HT-TM-mCer3 cells
dK (dL5(E52K)) = format: binding
[2] = system: HEK293 cells expressing NLS-dL5**; experiment: Cell permeability testing: labeling of nuclear localized FAP; format: cell-based; settings: flow cytometry, 100 nM dye, normalized to MG-nBu
[3] = system: HaloTag (HT) protein fusion; experiment: Binding to purified HaloTag protein fusion, denaturing SDS-PAGE
[4] = system: HEK293 cells expressing HT-TM-mCer3 (HaloTag); format: cell-based; settings: 500 nM dye, washed 6×, then 1 μM dL5**
[5] = system: HEK293 cells expressing dK-TM coplated with HT-TM-mCer3 cells; settings: 10 nM DAPA dye
dL5** = experiment: Binding kinetics and affinity of dye to purified FAP; settings: SD, N = 4
FRB-HT/dK-FKBP = experiment: Rapamycin chemical inducer of dimerization; format: biochemical; settings: 100 nM dK fusion, 200 nM HT fusion, 250 nM rapamycin, 10 nM DAPA
Sequence of FRB-HT/dK-FKBP (P42345 2012-2144 limits assumed): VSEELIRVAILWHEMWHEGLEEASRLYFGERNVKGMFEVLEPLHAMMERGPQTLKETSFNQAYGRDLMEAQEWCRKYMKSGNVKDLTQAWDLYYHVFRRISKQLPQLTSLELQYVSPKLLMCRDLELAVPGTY
Sequence of FRB-HT/dK-FKBP (P62942 2-108 limits assumed, further chain): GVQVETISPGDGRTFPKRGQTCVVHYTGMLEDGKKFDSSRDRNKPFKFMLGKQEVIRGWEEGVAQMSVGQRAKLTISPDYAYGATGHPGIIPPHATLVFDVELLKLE

dK-FRB/FKBP-HT = experiment: Rapamycin chemical inducer of dimerization; format: biochemical; settings: 100 nM dK fusion, 200 nM HT fusion, 250 nM rapamycin, 10 nM DAPA
Sequence of dK-FRB/FKBP-HT (P42345 2021-2113 limits assumed): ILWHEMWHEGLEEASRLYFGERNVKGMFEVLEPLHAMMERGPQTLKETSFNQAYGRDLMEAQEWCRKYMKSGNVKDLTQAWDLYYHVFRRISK
Sequence of dK-FRB/FKBP-HT (P62942 2-108 limits assumed, further chain): as the sequence (P62942 2-108 limits assumed, further chain) above

MG-PEG3500-HexCl [DAPA]
ratio between contact and noncontact signal ([1]; 100 nM DAPA dye): 1.9 | ratio between contact and noncontact signal ([1]; DAPA dye between 0.5 nM and 10 nM): > 3.8 | off rate, koff, dK (dK (dL5(E52K)); SD, N = 4): 53 ± 2 ×10^−4 s^−1 | on rate, kon, dK (dK (dL5(E52K)); SD, N = 4): 0.39 ± 0.03 ×10^6 M^−1 s^−1 | difference in FAP/DAPA KD between dL5** and dK (dK (dL5(E52K)); dK versus dL5**): ~ 500 fold | Kd (dK (dL5(E52K)); read-out: dissociation constant, KD, dK, KD = koff/kon, SD, N = 4): 13.7 ± 0.5 nM | NLS-dL5** labeling signal relative to MG-nBu signal [2]: 5% | binding to purified HaloTag protein fusion [3]: irreversibly bind | labeling of HaloTag expressing cells [4]: specifically labeled mCer3 positive cells | signal increase at the contact site versus the noncontact site [5]: 40 fold | off rate, koff, dL5** (dL5**): 1.23 ± 0.06 ×10^−4 s^−1 | on rate, kon, dL5** (dL5**): 3.2 ± 0.2 ×10^6 M^−1 s^−1 | increase in FAP–DAPA signal for rapamycin induced dimerization (FRB-HT/dK-FKBP): 50% | increase in FAP–DAPA signal for rapamycin induced dimerization (dK-FRB/FKBP-HT): 100%

— publication PMC8796707 (ACS chemical biology, 2020)
